The values below come from ChEMBL document CHEMBL1201862, “PubChem BioAssay data set” (2004).

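Interpolation was linear, between the two tested concentrations surrounding the appropriate level; five concentrations were tested over 48 hours in 96-well plates. At the GI50, growth is halved.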 Activity calls are given as the source filed them. Cut-off read from the data, not from the text of the source: active = GI50 up to about 1.1 µM and inactive = higher. Some results are limits rather than exact numbers.

Test systems include DU-145; CCRF-CEM; EKVX; 786-0; SNB-19; TK-10; HCT-15; SF-539; HT-29; NCI-H460; MOLT-4; OVCAR-8; Hs-578T; CAKI-1; OVCAR-4; BT-549; UO-31; NCI/ADR-RES; IGROV-1.
Common to all, as to experiment: DTP human tumour cell line panel, 48 h

One may read the GI50 as the concentration at which growth is held to half of that of the control. Turning to `O=C(Nc1nnc(-c2ccc(Cl)cc2)o1)C(SC(=S)N1CCOCC1)c1ccccc1` (centres undefined), the GI50 in the experiment on DU-145 is 23.7 µM (inactive); with CCRF-CEM, 10 µM (inactive); with EKVX, 14.6 µM (inactive); in the experiment on 786-0, 9.35 µM (inactive); in the experiment with SNB-19 it was 27 µM (inactive); in the experiment on TK-10 it was 44.3 µM (inactive). Besides, the GI50 in the experiment on HCT-15 is 6.03 µM; in the experiment with SF-539 it was 16.7 µM (inactive); with HT-29, 18.8 µM (inactive); in the experiment on NCI-H460, 6.44 µM (inactive); with MOLT-4, 4.38 µM (inactive); in the experiment with OVCAR-8, 19.7 µM (inactive). The GI50 with Hs-578T is 46.2 µM (inactive); in the experiment on CAKI-1 it was 20.3 µM (inactive); with OVCAR-4 it was 20.2 µM (inactive); in the experiment with BT-549, 16.8 µM (inactive); in the experiment on UO-31, 4.97 µM (inactive); with NCI/ADR-RES, 5.58 µM (inactive). In the experiment with IGROV-1, the GI50 was 19.6 µM (inactive).

On to `O=C(NC(=O)c1ccccc1)OC(c1ccccc1)C1CO1` (centres undefined), for which the GI50 in the experiment on DU-145, with CCRF-CEM, with EKVX, in the experiment with 786-0, in the experiment with SNB-19 and in the experiment with TK-10 was > 100 µM (inactive) throughout. Besides, the GI50 in the experiment with HCT-15 is above 100 µM; with SF-539, > 100 µM (inactive); in the experiment on HT-29 it was > 100 µM (inactive); with NCI-H460, > 100 µM (inactive); with MOLT-4, > 100 µM (inactive); in the experiment with OVCAR-8 it was > 100 µM (inactive). The GI50 in the experiment on Hs-578T, in the experiment on CAKI-1, in the experiment with OVCAR-4, in the experiment with BT-549, in the experiment on UO-31 and in the experiment on NCI/ADR-RES was > 100 µM (inactive) throughout. In the experiment with IGROV-1, the GI50 was > 100 µM (inactive).

Consider `CCOC(=O)c1nnc2c(C#N)c(-c3ccccc3)c(C)n2c1N`, for which the GI50 in the experiment on DU-145 is 83.9 µM (inactive); in the experiment with CCRF-CEM it was 39.7 µM (inactive); in the experiment with EKVX, 38 µM (inactive); with 786-0 it was 56.1 µM (inactive); in the experiment on SNB-19, 21.3 µM (inactive); in the experiment on TK-10, 37 µM (inactive). Moreover, the 50% growth inhibitory concentration (GI50) was 37.5 µM in the experiment on HCT-15; 30.9 µM (inactive) with SF-539; 33.7 µM (inactive) with HT-29; 39.8 µM (inactive) in the experiment on NCI-H460; 30.5 µM (inactive) in the experiment on MOLT-4; 28.4 µM (inactive) in the experiment with OVCAR-8. In addition, the GI50 in the experiment with Hs-578T was 24.6 µM (inactive); in the experiment on CAKI-1, 52.6 µM (inactive); in the experiment on OVCAR-4 it was 10.9 µM (inactive); in the experiment on BT-549 it was 40.4 µM (inactive); in the experiment with UO-31, 33.4 µM (inactive); with NCI/ADR-RES, 38.8 µM (inactive). The GI50 with IGROV-1 is 22.2 µM (inactive).

Regarding `CCOC(=O)/C(=C\NCC(OCC)OCC)c1nc2ccccc2[nH]1`, the GI50 in the experiment with DU-145 was 43.7 µM (inactive); in the experiment on CCRF-CEM, 33.3 µM (inactive); in the experiment on EKVX, 27.6 µM (inactive); with 786-0, 31.5 µM (inactive); in the experiment with SNB-19, 67.3 µM (inactive); with TK-10, 31.3 µM (inactive). In addition, the 50% growth inhibitory concentration (GI50) in the experiment with HCT-15 is 10 µM; in the experiment on SF-539 it was 26.2 µM (inactive); in the experiment on HT-29, 22.4 µM (inactive); in the experiment on NCI-H460 it was 23.1 µM (inactive); in the experiment with MOLT-4 it was 17.1 µM (inactive); in the experiment on OVCAR-8 it was 32.8 µM (inactive). In addition, the GI50 with Hs-578T is 35.6 µM (inactive); in the experiment with CAKI-1, 38.9 µM (inactive); with OVCAR-4, 31.9 µM (inactive); in the experiment with BT-549 it was 22.4 µM (inactive); in the experiment with UO-31, 13.3 µM (inactive); in the experiment with NCI/ADR-RES it was 2.02 µM (inactive). For the same compound, in the experiment with IGROV-1, the GI50 is 29 µM (inactive).

Regarding `N#Cc1ncn(-c2ccccc2)c1N`, the GI50 in the experiment on DU-145, with CCRF-CEM, in the experiment with EKVX, in the experiment with 786-0, with SNB-19 and with TK-10 was > 100 µM (inactive) each time. For the same compound, the GI50 in the experiment on HCT-15 was above 100 µM; in the experiment on SF-539, > 100 µM (inactive); with HT-29, > 100 µM (inactive); in the experiment on NCI-H460, > 100 µM (inactive); in the experiment with MOLT-4, > 100 µM (inactive); with OVCAR-8, > 100 µM (inactive). The GI50 in the experiment with Hs-578T, in the experiment on CAKI-1, in the experiment on OVCAR-4, in the experiment with BT-549, with UO-31 and in the experiment on NCI/ADR-RES was > 100 µM (inactive) in each case. Moreover, in the experiment on IGROV-1, the GI50 is > 100 µM (inactive).

With `O=c1c(C(c2ccc(/C=C/c3ccccc3)cc2)c2c(O)oc3cc(O)ccc3c2=O)c(O)oc2cc(O)ccc12`, the GI50 in the experiment on DU-145 is > 100 µM (inactive); in the experiment with CCRF-CEM, 37.6 µM (inactive); with EKVX it was > 100 µM (inactive); with 786-0 it was > 100 µM (inactive); with SNB-19, > 100 µM (inactive); in the experiment with TK-10 it was > 100 µM (inactive). Besides, the 50% growth inhibitory concentration (GI50) was above 100 µM in the experiment with HCT-15; > 100 µM (inactive) in the experiment with SF-539; > 100 µM (inactive) in the experiment on HT-29; > 100 µM (inactive) in the experiment on NCI-H460; 20.9 µM (inactive) in the experiment on MOLT-4; 98.6 µM (inactive) in the experiment on OVCAR-8. Further, the GI50 with Hs-578T was 56.6 µM (inactive); in the experiment on CAKI-1, 55.3 µM (inactive); in the experiment on OVCAR-4, > 100 µM (inactive); with BT-549, 98.9 µM (inactive); in the experiment on UO-31, 56.9 µM (inactive); with NCI/ADR-RES it was > 100 µM (inactive). Also, the GI50 with IGROV-1 is > 100 µM (inactive).

Turning to `COc1ccc2nc3cc(Cl)ccc3c(NCCNC(=O)Cn3c(=O)n(C)c(=O)c4c3nc3c(c(=O)n(C)c(=O)n3C)[n+]4[O-])c2c1`, the GI50 in the experiment on DU-145 was > 84.3 µM (inactive); in the experiment with CCRF-CEM, 50 µM (inactive); with EKVX, 34.7 µM (inactive); in the experiment on 786-0 it was 43.1 µM (inactive); in the experiment on SNB-19, 23.9 µM (inactive); with TK-10, 29 µM (inactive). In addition, the GI50 in the experiment with HCT-15 was above 100 µM; with SF-539, 23.7 µM (inactive); with HT-29, 24.2 µM (inactive); in the experiment with NCI-H460, 44.7 µM (inactive); in the experiment with MOLT-4, 22.9 µM (inactive); with OVCAR-8 it was 2.47 µM (inactive). For the same compound, the GI50 was 20.3 µM (inactive) in the experiment with Hs-578T; > 80 µM (inactive) in the experiment with CAKI-1; > 64.7 µM (inactive) in the experiment on OVCAR-4; 23 µM (inactive) in the experiment on BT-549; > 100 µM (inactive) in the experiment with UO-31; 38.8 µM (inactive) with NCI/ADR-RES. The GI50 in the experiment on IGROV-1 is 19.1 µM (inactive).

On to `Cn1c2ccccc2c(=NNc2ccc(S(=O)(=O)N=C(N)N)cc2)c2ccccc21`, for which the GI50 was 11.2 µM (inactive) in the experiment with DU-145; 6.68 µM (inactive) in the experiment on CCRF-CEM; 5.57 µM (inactive) in the experiment on EKVX; 5.98 µM (inactive) in the experiment with 786-0; 10.6 µM (inactive) in the experiment with SNB-19; 7.6 µM (inactive) in the experiment with TK-10. Besides, the GI50 with HCT-15 is 10.2 µM; with SF-539, 13.8 µM (inactive); in the experiment on HT-29, 3.8 µM (inactive); in the experiment on NCI-H460, 3.37 µM (inactive); in the experiment on MOLT-4, 3.31 µM (inactive); in the experiment on OVCAR-8, 6.03 µM (inactive). Moreover, the GI50 in the experiment on Hs-578T is 17.6 µM (inactive); in the experiment on CAKI-1, 10.8 µM (inactive); with OVCAR-4, 3.37 µM (inactive); in the experiment with BT-549 it was 9.42 µM (inactive); in the experiment with UO-31 it was 4.33 µM (inactive); in the experiment with NCI/ADR-RES it was 21.8 µM (inactive). Moreover, the GI50 in the experiment with IGROV-1 was 11.7 µM (inactive).

With `Oc1c(CN2CCCC2)ccc2cccnc12`, the GI50 in the experiment on DU-145 is 23.2 µM (inactive); in the experiment on CCRF-CEM, 8.77 µM (inactive); in the experiment with EKVX, 12.3 µM (inactive); with 786-0, 17.9 µM (inactive); with SNB-19 it was 18.3 µM (inactive); in the experiment with TK-10 it was 12.4 µM (inactive). In addition, the GI50 was 2.84 µM in the experiment on HCT-15; 24 µM (inactive) with SF-539; 27.5 µM (inactive) in the experiment on HT-29; 20.3 µM (inactive) in the experiment with NCI-H460; 20.1 µM (inactive) with MOLT-4; 11 µM (inactive) in the experiment on OVCAR-8. The GI50 was > 83.4 µM (inactive) in the experiment with Hs-578T; 6.04 µM (inactive) with CAKI-1; 14.9 µM (inactive) in the experiment with OVCAR-4; 46.1 µM (inactive) with BT-549; 3.44 µM (inactive) in the experiment on UO-31; 2.38 µM (inactive) in the experiment with NCI/ADR-RES. Besides, the GI50 in the experiment on IGROV-1 is 18.8 µM (inactive).

With `CC1(CC(=O)O)OC2CCCCCC2O1.NCc1ccccc1` (centres undefined), the GI50 in the experiment with DU-145 was > 100 µM (inactive); in the experiment on CCRF-CEM it was 34.2 µM (inactive); in the experiment with EKVX, 20.2 µM (inactive); with 786-0, > 100 µM (inactive); in the experiment with SNB-19 it was > 100 µM (inactive); with TK-10, > 100 µM (inactive). For the same compound, the 50% growth inhibitory concentration (GI50) in the experiment with HCT-15 was above 100 µM; in the experiment on SF-539, > 100 µM (inactive); with HT-29, 64.1 µM (inactive); in the experiment with NCI-H460, > 100 µM (inactive); in the experiment on MOLT-4, > 100 µM (inactive); with OVCAR-8 it was > 100 µM (inactive). Moreover, the GI50 with Hs-578T, with CAKI-1, with OVCAR-4, in the experiment on BT-549, in the experiment on UO-31 and in the experiment with NCI/ADR-RES was > 100 µM (inactive) throughout. Besides, the GI50 with IGROV-1 is > 100 µM (inactive).

As to `Cn1cc(-c2n[nH]c(-c3ccc(Cl)cc3)nc2=O)c2ccccc21`, the GI50 with DU-145 is 3.2 µM (inactive); with CCRF-CEM, 1.77 µM (inactive); in the experiment on EKVX, 4.41 µM (inactive); with 786-0 it was 3.38 µM (inactive); in the experiment with SNB-19, 3.03 µM (inactive); in the experiment on TK-10, 11.8 µM (inactive). In addition, the GI50 in the experiment with HCT-15 is 1.1 µM; in the experiment with SF-539, 1.08 µM (active); in the experiment with HT-29 it was 2.19 µM (inactive); in the experiment with NCI-H460 it was 2.33 µM (inactive); in the experiment on MOLT-4, 1.6 µM (inactive); in the experiment with OVCAR-8 it was 5.62 µM (inactive). The GI50 is 2.76 µM (inactive) in the experiment with Hs-578T; 1.36 µM (inactive) in the experiment with CAKI-1; 15.1 µM (inactive) in the experiment on OVCAR-4; 5.57 µM (inactive) with BT-549; 1.06 µM (active) in the experiment on UO-31; 1.69 µM (inactive) with NCI/ADR-RES. Besides, the GI50 in the experiment with IGROV-1 was 4.58 µM (inactive).
